The record followed here is ChEMBL document CHEMBL5614415, “Recent advances and challenges of revolutionizing drug-resistant tuberculosis treatment” (Eur J Med Chem, 2024).

Broadly, the MIC50 is an inhibitory concentration at the 50% level, which refers to growth in some studies and to a panel of isolates in others. For orientation: MIC90 means the lowest concentration that inhibits either 90% of growth or 90% of the strains tested, depending on the study.

Converted amounts (≈) assume the structure as drawn.

One assay concerns Mycobacterium tuberculosis. The assay can be described thus: Antimycobacterial activity against extensively drug resistant Mycobacterium tuberculosis assessed as reduction in microbial growth. Format: functional.
Details: not given
In the case of `CCOc1ccc(Br)c2c1B(O)O[C@@H]2CN`, the MIC50 was 0.4 µg/mL.

As for `Cl.NC[C@H]1OB(O)c2c(OCCO)ccc(Cl)c21`, the MIC50 was 0.023 µg/mL.

With `COc1ccc(Cl)c2c1B(O)O[C@@H]2CN`, the MIC50 is 0.1 µg/mL.

Turning to `CCCCOc1ccc(Cl)c2c1B(O)O[C@@H]2CN`, the MIC50 is 0.6 µg/mL.

For `COc1ccc(Br)c2c1B(O)O[C@@H]2CN`, the MIC50 was found to be 0.1 µg/mL.

Consider `NCC1OB(O)c2c(Oc3ccccc3)ccc(Cl)c21` (stereo not drawn), for which the MIC50 was found to be 5 µg/mL.

For `NC[C@@H]1OB(O)c2c(OCCO)ccc(Cl)c21`, the MIC50 amounted to 5 µg/mL.

Turning to `CCCOc1ccc(Br)c2c1B(O)O[C@@H]2CN`, the MIC50 was 0.38 µg/mL.

Turning to `NCC1OB(O)c2c(OCc3ccccc3)ccc(Cl)c21` (stereo not drawn), the MIC50 was 5 µg/mL.

For the molecule `CCOc1ccc(Cl)c2c1B(O)O[C@@H]2CN`, the MIC50 came out at 0.3 µg/mL.

Consider `NC[C@H]1OB(O)c2c(OCCO)ccc(Br)c21`, for which the MIC50 amounted to 0.08 µg/mL.

Consider `CCCOc1ccc(Cl)c2c1B(O)O[C@@H]2CN`, for which the MIC50 was found to be 0.16 µg/mL.

For the molecule `NCC1OB(O)c2c(OCCc3ccccc3)ccc(Cl)c21` (stereo not drawn), the MIC50 is 5 µg/mL.

Consider `CCCCOc1ccc(Br)c2c1B(O)O[C@@H]2CN`, for which the MIC50 amounted to 0.45 µg/mL.

Take `NC[C@@H]1OB(O)c2c(OCCO)ccc(Br)c21`: the MIC50 is 10 µg/mL.

In another assay the test system is Mycobacterium tuberculosis. Nature of the assay: Antibacterial activity against fluoroquinolone-resistant Mycobacterium tuberculosis H37Rv assessed as reduction in bacterial growth measured after 16 to 18 hrs by serial dilution method. Format: functional. The following applies: time 16-18 hrs.
As to `COc1c(N2CCNC(C)C2)c(F)cc2c(=O)c(C(=O)O)cn(C3CC3)c12` (stereo not drawn) [GATIFLOXACIN], the MIC90 came out at 0.06 µg/mL (≈ 0.16 µM).

For another assay, the system named is Mycobacterium tuberculosis. The assay can be described thus: Antitubercular activity against Multi-drug resistant Mycobacterium tuberculosis assessed as inhibition of bacterial growth incubated for 14 days by broth microdilution method. Format: functional. The following applies: 336 h, time 14 day. (In general: Dilution methods test growth across graded concentrations, often in twofold steps.)
Consider `COc1ncccc1Nc1cc2nc3ccccc3n(-c3ccc(OC(F)(F)F)cc3)c-2c/c1=N\C1CCC(OC)CC1` (stereo not drawn), for which the MIC50 stood at 0.06 µg/mL (≈ 0.102 µM).

On to `CC(C)/N=c1\cc2n(-c3ccc(Cl)cc3)c3ccccc3nc-2cc1Nc1ccc(Cl)cc1` [CLOFAZIMINE], for which the MIC50 worked out at 0.12 µg/mL (≈ 0.253 µM).
